The text below walks through data of patent publication US20100240746A1, “STEREOISOMERS OF TRICYCLODECAN-9-YL-XANTHOGENATE” (LUMAVITA AG, priority 2007, published 2010).

The structures appear in SMILES notation. In brackets after ≈: the same amount, converted by molar mass.

Series [1] concerns phosphatidylcholine-specific phospholipase C (PC-PLC). Conditions: Gonzalez-Roura et al.; comparison between diastereomers; cited from earlier work.
For series [2], the system named is herpes simplex virus type 2. Nature of the series: HSV-2 inhibition in Calu-6 cells, plaque titration on RITA cells. Type of series: cell-based. Conditions: Human alphaherpesvirus 2, Calu-6; 48 hr, 50 plaque forming units per well. How it is done: (§1) Calu-6 cells and RITA cells were grown in DMEM cell culture medium containing 10% fetal calf serum in CO2 incubator under 5% CO2 at 37° C. with 100% humidity.
(§2) For HSV-2 inhibition, Calu-6 cells were seeded in 96 well plates at a density of 3×10^6 cells per plate in the DMEM cell culture medium. The plates were incubated at 37° C. in the presence of 5% CO2 for 24 hr. The DMEM cell culture medium in the plates was removed and the cells were infected with Herpes simplex virus type-2 at 50 plaque forming units per well. After incubation at 37° C. for 60 min, test compounds in DMEM cell culture medium at a series of concentrations were added. The plates were incubated at 37° C. in the presence of 5% CO2 for 48 hr. The plates were frozen at −20° C. prior to further analysis. After thawing at room temperature, supernatants containing infectious virus particles were prepared by centrifuging the supernatant from each well at 18,000 g at 4° C. for 5 min. The supernatant was further diluted before assay.
RITA cells were seeded in 24 well Linbra plates at a density of 4×10^6 cells per plate in 2 mL of DMEM cell culture medium. The plates were incubated at 37° C. in the presence of 5% CO2 for 24 hr. […] The number of plaques was determined macroscopically. […] The therapeutic index was also calculated for each compound by dividing LD50 with IC50.

The target of series [3] is T1, B. cereus PC-PLC (phosphatidylcholine-specific phospholipase C) (Bacillus cereus, UniProt P09598).
T1 construct: purchased Invitrogen
T1 sequence (P09598 39-283 limits assumed): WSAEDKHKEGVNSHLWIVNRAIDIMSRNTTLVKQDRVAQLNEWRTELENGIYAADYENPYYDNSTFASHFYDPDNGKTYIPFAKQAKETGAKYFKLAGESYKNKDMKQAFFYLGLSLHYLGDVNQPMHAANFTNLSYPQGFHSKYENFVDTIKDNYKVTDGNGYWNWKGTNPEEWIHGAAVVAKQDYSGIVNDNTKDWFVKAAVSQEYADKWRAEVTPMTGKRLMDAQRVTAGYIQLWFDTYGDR
Description: Inhibition of phosphatidylcholine-specific phospholipase C (Amplex Red PC-PLC assay kit). Format: biochemical. Conditions: 30 min at 37° C., 0.2 U/mL PC-PLC solution, triplicate. How it is done: (§3) The inhibitory activities of optically active potassium salts of (+)- and (−)-O-exo/C-exo-tricyclo [5.2.1.0^2,6]-dec-9-yl-xanthic acid 1A ((+)- and (−)-enantiomers 1A) against phosphatidylcholine-specific phospholipase C were evaluated, together with D609 and potassium salt of racemic O-exo/C-exo xanthic acid 1A (racemic 1A), using Amplex Red phosphatidylcholine-specific phospholipase C(PC-PLC) assay kit, which was obtained from Invitrogen (Calsbad, Calif.). D609 was obtained from Sigma Aldrich.
(§4) An Amplex Red stock solution (˜20 mM), a working reaction buffer, and a horseradish peroxidase stock solution (200 U/mL), a H2O2 working solution (20 mM), a choline oxidate stock solution (20 U/mL), an alkaline phosphatase stock solution (400 U/mL), and a B. cereus PC-PLC stock solution (10 U/mL) were prepared according to the instruction of the assay kit. The stock solution (100 mg/mL) for each test compound was also prepared by dissolving the compound in water 2 hr prior to the start of the experiment.
(§5) A working Amplex Red/HRP/lecithin solution was prepared by adding 200 μL of Amplex Red reagent stock solution, 100 μL of HRP stock solution, 200 μL of alkaline phosphatase stock solution, 100 μL of choline oxidase stock solution, and 78 μL of the lecithin solution to […] of the working reaction buffer. PC-PLC solution (0.2 U/mL) was prepared by diluting the PC-PLC stock solution with the working reaction buffer to the desired concentration.
The test compound (25 μL) at a serious of concentrations was pipetted into a 96 well plate. For uninhibited PC-PLC controls and non-PC-PLC controls, 25 μL of water was added. After the addition of 50 μL of the Amplex Red/HRP/lecithin working solution, the reaction was initiated by adding 25 μL of PC-PLC solution to each well. […] After incubated for 30 min at 37° C., the reactions were measured with a fluorescence microplate reader using excitation at 550 nm and emission detection at 590 nm. The fluorescent data obtained were corrected for background fluorescence by subtracting the values obtained from the non-PC-PLC controls.

The test system of series [4] is bovine papilloma virus type I (BPV-1)-transformed HEF (HEF-BPV). Description: Inhibition of bovine papilloma virus, BPV-infected hamster embryo fibroblasts (HEF) cell proliferation assay. Type of series: cell-based. Conditions: Bos taurus papillomavirus 1, HEF, 72 h, pH 6.8, HEF-BPV, 37° C., read-out: IC50. How it is done: Briefly, hamster embryo fibroblasts and bovine papilloma virus type I (BPV-1)-transformed HEF (HEF-BPV) were grown in Eagle's basal medium. […] and HEF cells were seeded in 96-well plates at a density of 0.5×10^6 cells per plate in DMEM cell culture medium containing 10% fetal calf serum at pH 6.8. The plates were then incubated in the presence of 5% CO2 in 100% humidity at 37° C. After 6 hr, the cell culture medium in the plates was exchanged with fresh DMEM cell culture medium containing test compounds at a series of concentrations. The plates were incubated at 37° C. for additional 72 hr. Cells in the plates were then washed with PBS, fixed with 3% formaldehyde solution containing 0.9% NaCl for 1 min, washed by water for 10 sec, and dried overnight. For detection, the plates were stained with crystal violet solution for 5 min at room temperature, washed 5 times with water, and dried at room temperature overnight. After adding ethanol/acetic acid (99:1, v/v, […]) to each well, the plates were measured at 595 nm using an ELISA reader.

Series [5] concerns Herpes simplex virus type-2 (HSV-2). Nature of the series: Inhibition of HSV-2 (plaque assay; Calu-6 infected, RITA cells for plaques). Format: cell-based. How it is done:
as §1, §2
RITA cells were seeded in 24 well Linbra plates at a density of 4×10^6 cells per plate in 2 mL of DMEM cell culture medium. The plates were incubated at 37° C. in the presence of 5% CO2 for 24 hr. After the removal of the cell culture medium, 0.1 mL of the diluted supernatants was added and the plates were incubated at 37 C for 1 hr. DMEM cell medium containing 10% fetal calf serum and 0.5% methyl cellulose was added and the plates were incubated at 37 for 48 hr. The plates were then washed with PBS, fixed with 3% formaldehyde solution containing 0.9% NaCl for 1 min, washed by water for 10 sec, and dried overnight. For detection, the plates were then stained with crystal violet solution for 5 min at room temperature, washed 5 times with water, and dried at room temperature overnight. The number of plaques was determined macroscopically. The number of plaques per well was then multiplied with the dilution factor. Dose response curves were obtained by plotting the number of plaques/0.1 mL against compound concentration. The therapeutic index was also calculated for each compound by dividing LD50 with IC50.

For series [6], the target named is T2, phosphatidylcholine-specific phospholipase C (PC-PLC) (Bacillus cereus, UniProt P09598).
T2 construct: purchased Invitrogen
T2 sequence (P09598 39-283 limits assumed): as above
Nature of the series: Amplex Red phosphatidylcholine-specific phospholipase C (PC-PLC) inhibition assay. Format: biochemical, B. cereus. Conditions: 30 min at 37° C., triplicate. How it is done: as §3, §4, §5
The test compound (25 μL) at a serious of concentrations was pipetted into a 96 well plate. For uninhibited PC-PLC controls and non-PC-PLC controls, 25 μL of water was added. After the addition of 50 μL of the Amplex Red/HRP/lecithin working solution, the reaction was initiated by adding 25 μL of PC-PLC solution to each well. To the non-PC-PLC controls, 25 μL of water was added instead of PC-PLC solution. The experiment was performed in triplicate. The reactions were protected from light. After incubated for 30 min at 37° C., the reactions were measured with a fluorescence microplate reader using excitation at 550 nm and emission detection at 590 nm. The fluorescent data obtained were corrected for background fluorescence by subtracting the values obtained from the non-PC-PLC controls.

The test system of the next series is Calu-6 cells. Nature of the series: Cytotoxicity assay in Calu-6 cells (crystal violet). Format: cell-based. Conditions: 48 hr. How it is done: as §1
For cytotoxicity assay, Calu-6 cells were seeded in 96 well plates at a density of 3×10^6 cells per plate in the DMEM cell culture medium. The plates were incubated at 37° C. in the presence of 5% CO2 for 24 hr. The DMEM cell culture medium in the plates was exchanged with fresh DMEM cell culture medium containing test compounds at a series of concentrations. The plates were incubated at 37° C. in the presence of 5% CO2 for 48 hr. The plates were then washed with PBS, fixed with 3% formaldehyde solution containing 0.9% NaCl for 1 min, washed by water for 10 sec, and dried overnight. For detection, the plates were stained with crystal violet solution for 5 min at room temperature, washed 5 times with water, and dried at room temperature overnight. After adding ethanol/acetic acid (99:1, v/v, […]) to each well, the plates were measured at 595 nm using an ELISA reader. A dose response curve was obtained for each compound tested by plotting the mean values of the optical densities against compound concentration.

Usually IC50 stands for the midpoint of a concentration-inhibition curve.

Regarding `S=C(S)OC1CC2CC1C1CCCC21` (stereo not drawn) [O-exo/C-endo 1B], the “inhibitory activities against PC-specific phospholipase C” value in series [1] is reported as “no significant differences”. `Nc1nc2c(ncn2COCCO)c(=O)[nH]1` [Aciclovir, aciclovir] had an IC50 in series [2] of 1.21 ± 0.81 µg/mL (≈ 5.37 µM). For `S=C(S)OC1CC2CC1C1CCCC21` (racemic) [Racemic 1A, racemic O-exo/C-exo-tricyclo[5.2.1.0^2,6]-dec-9-yl-xanthic acid], in series [1], the “inhibitory activities against PC-specific phospholipase C” value is on record as “no significant differences”. Turning to `S=C(S)OC1CC2CC1C1CCCC21` (single isomer, unassigned; (+)) [(+)-Enantiomer 1A, (+)-O-exo/C-exo-tricyclo[5.2.1.0^2,6]-dec-9-yl-xanthic acid], the IC50 was 60.8 µM in series [3]; 19.9 ± 2.52 µg/mL (≈ 87.1 µM) in series [4]; 20.97 ± 4.06 µg/mL (≈ 91.8 µM) in series [5] (Calu-6 cells, 48 hr, 50 plaque forming units per well). Moreover, the “Therapeutic Index” value in series [5] (LD50 (Calu-6) divided by IC50 (HSV-2), 2880 min) is 3.9. `S=C(S)OC1CC2CC1C1CCCC21` (single isomer, unassigned; enantiomer 1a) [(+)-Enantiomer 1A, (+)-O-exo/C-exo-tricyclo[5.2.1.0^2,6]-dec-9-yl-xanthic acid 1A] had an IC50 in series [6] of 13.88 ± 0.85 µg/mL (≈ 60.8 µM). The LD50 with Calu-6 cells worked out at 81.29 ± 4.53 µg/mL.
